Consider 18 molecules from PubChem BioAssay (NCI).

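96-well plates; 48 h exposure; 5 concentrations. Endpoints by linear interpolation between flanking doses. Not reached: highest tested concentration assigned. Abbreviation: GI50, concentration required for 50% inhibition of growth. Definition used: TGI = concentration required for complete inhibition of growth.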

Common to all, as to experiment: DTP human tumour cell line panel, 48 h
Experiment [1] concerns HOP-62 NSCLC.
Experiment [2] concerns HT29 colon.
In experiment [3] the test system is SK-MEL-5 melanoma.
For experiment [4], the system named is SN12C renal.
Experiment [5] has as its system HOP-92 NSCLC.
Experiment [6] relates to MDA-MB-231 breast.
The test system of experiment [7] is ACHN renal.
The subject of experiment [8] is SF-539 CNS.
Experiment [9] concerns SNB-75 CNS.
Experiment [10] deals with HCT-116 colon.

`COc1ccc(OC)c2c(=S)c3ccccc3[nH]c12`: the total growth inhibition concentration (TGI) (commonly the concentration at which net growth stops) in experiment [1] is more than 100 µM; in experiment [2], more than 100 µM; in [3], 70.1 µM; in experiment [4], more than 100 µM; in experiment [5], more than 100 µM; in [6], more than 100 µM. Moreover, the TGI in experiment [7], in experiment [8], in experiment [9] and in experiment [10] was more than 100 µM each time.

Take `OCc1ccc(N(CCN2CCCC2)Cc2ccc(F)cc2)cc1Cl`: the GI50 (commonly the concentration at which growth is held to half of that of the control) in [1] is 17.9 µM; in [2], 15.6 µM; in experiment [3], 15 µM; in [4] it was 34.8 µM; in experiment [6], 16 µM; in [7], 21.8 µM. Moreover, the GI50 in [8] is 16.4 µM; in experiment [9] it was 12.5 µM; in experiment [10], 13.4 µM. For the same molecule, the TGI was 42.1 µM in experiment [1]; 32.8 µM in experiment [2]; 28.4 µM in experiment [3]; more than 100 µM in experiment [4]; 38.1 µM in experiment [6]; 72.3 µM in experiment [7]. Besides, the TGI stood at 31.2 µM in experiment [8], 35.3 µM in [9] and 37.3 µM in experiment [10].

With `NS(=O)(=O)c1ccc(NC(=O)c2cccc3cc4ccccc4nc23)cc1`, the concentration for total growth inhibition (TGI) in experiment [1], in experiment [2], in experiment [3], in [4], in [5] and in [6] was more than 100 µM in each case. The TGI was more than 100 µM in [7], more than 94.3 µM in experiment [8], more than 100 µM in experiment [9] and more than 100 µM in [10].

In the case of `COC1=C(Br)C(=O)C2=C(C1=O)C1C3=C(C(=O)C=CC3=O)C2c2ccccc21` (centres undefined), the GI50 was 25.9 µM in [1]; 31.9 µM in experiment [2]; 16 µM in experiment [3]; 11 µM in [4]; 2.51 µM in experiment [5]; 8.15 µM in experiment [6]. In addition, the GI50 in experiment [7] is 14.8 µM; in experiment [8] it was 2.92 µM; in experiment [9], 19.4 µM; in [10], 5.91 µM. In addition, the TGI in experiment [1] was 47.6 µM; in experiment [2] it was more than 100 µM; in [3] it was 48.9 µM; in experiment [4], 32.2 µM; in experiment [5], 11.6 µM; in experiment [6] it was 66.1 µM. Besides, the TGI in experiment [7] was 34.5 µM; in [8], 8.79 µM; in [9], 64.4 µM; in experiment [10], more than 100 µM.

`Cc1ccc(Sc2sc(-c3ccccc3)nc2[P+](c2ccccc2)(c2ccccc2)c2ccccc2)cc1`: the GI50 in experiment [1] was 0.296 µM; in experiment [2] it was 0.237 µM; in experiment [3] it was 0.172 µM; in experiment [4], 0.323 µM; in experiment [5], 0.186 µM; in experiment [6], 0.251 µM. The GI50 was 0.268 µM in experiment [7], 0.375 µM in experiment [8], 0.21 µM in experiment [9] and 0.246 µM in [10]. The TGI in [1] was 1.18 µM; in experiment [2], 1.17 µM; in [3], 0.313 µM; in [4], 1.1 µM; in experiment [5], 0.563 µM; in [6] it was 0.943 µM. The TGI in experiment [7] is 0.933 µM; in experiment [8], 1.47 µM; in experiment [9], 0.759 µM; in experiment [10], 1.11 µM.

Regarding `CS(=O)(=O)OCCN(CCOS(C)(=O)=O)c1ccc(C=O)cc1`, the TGI in experiment [1] came to 24 µM; in experiment [2] it was 57.9 µM; in experiment [3] it was 29.1 µM; in [4], 41.3 µM; in experiment [5], 44.5 µM; in experiment [6], 67.6 µM. Further, the TGI in experiment [7] is 2.69 µM; in [8], 17.4 µM; in experiment [9], 13.1 µM; in experiment [10] it was more than 100 µM.

Turning to `O=C(Nc1cccc(-n2cc(-c3ccncc3)c(-c3ccc(O)c(Cl)c3)n2)c1)Nc1cccc(C(F)(F)F)c1`, the GI50 was 2.75 µM in experiment [1]; 3.75 µM in [2]; 1.59 µM in experiment [3]; 2.86 µM in experiment [4]; 1.07 µM in [5]; 2.24 µM in experiment [6]. For the same molecule, the GI50 in experiment [7] is 2.51 µM; in experiment [8] it was 1.64 µM; in experiment [9], 1.43 µM; in [10], 2.05 µM. Also, the total growth inhibition concentration (TGI) in experiment [1] was 8.36 µM; in experiment [2], 13.7 µM; in experiment [3] it was 3.01 µM; in [4] it was more than 100 µM; in experiment [5], 4.14 µM; in [6], 16.9 µM. For the same molecule, the TGI stood at 8.4 µM in experiment [7], 5.18 µM in experiment [8], 9.75 µM in experiment [9] and 5.87 µM in [10].

For the molecule `Cc1cc(N(CCCl)CCCl)ccc1/C=N/NC(=O)Cc1cc(=O)oc2cc(O)ccc12`, the total growth inhibition concentration (TGI) is 39.7 µM in experiment [1]; 31.2 µM in experiment [2]; 21.1 µM in [3]; 38.2 µM in experiment [4]; more than 100 µM in [5]; 86.8 µM in experiment [6]. The concentration for total growth inhibition (TGI) was 40.3 µM in experiment [7], 40.7 µM in experiment [8], more than 100 µM in experiment [9] and 40.5 µM in [10].

Turning to `Fc1ccc2[nH]cc(SSc3c[nH]c4ccc(F)cc34)c2c1`, the GI50 in experiment [1] was 6.33 µM; in [2] it was 5.46 µM; in experiment [3], 5.13 µM; in experiment [5], 1.95 µM; in experiment [6], 4.17 µM; in experiment [7], 4.34 µM. The GI50 in experiment [8] was 3.77 µM; in experiment [9], 3.12 µM; in experiment [10], 3.98 µM. In addition, the total growth inhibition concentration (TGI) was 57.2 µM in experiment [1]; 23.9 µM in experiment [2]; 18.3 µM in experiment [3]; 7.92 µM in experiment [5]; 26.8 µM in experiment [6]; 34.3 µM in experiment [7]. Also, the values for the TGI in experiment [8], in experiment [9] and in experiment [10] were 14.7 µM, 15.9 µM and more than 100 µM, respectively.

Turning to `COc1ccc(/C=C/NC=O)cc1`, the TGI in experiment [1], in experiment [2], in experiment [3], in experiment [4], in experiment [6] and in experiment [7] was more than 100 µM in each case. The concentration for total growth inhibition (TGI) in [8], in [9] and in experiment [10] was more than 100 µM in each case.

For `CCNCCCn1c2c(c3ccc([N+](=O)[O-])cc3c1=O)C(=O)c1cc(OC)cnc1-2`, the GI50 is 0.107 µM in [1]; 0.0579 µM in [2]; 0.078 µM in experiment [3]; 0.0531 µM in experiment [4]; 0.471 µM in experiment [5]; 0.326 µM in [6]. Besides, the 50% growth inhibitory concentration (GI50) is 0.0313 µM in experiment [7], 0.0696 µM in experiment [8] and 0.126 µM in [9]. The TGI in experiment [1] is 1.89 µM; in experiment [2], 1.25 µM; in experiment [3], 0.234 µM; in experiment [4], 1.08 µM; in experiment [5], 17.4 µM; in experiment [6], 1.49 µM. Besides, the TGI in experiment [7] turned out to be 0.144 µM; in experiment [8] it was 0.579 µM; in experiment [9], 1.54 µM.

On to `COc1ccc(N(/C=C/C(=O)C(F)(F)F)CC(=O)c2ccc(Cl)c(Cl)c2)cc1`, for which the GI50 is 16.9 µM in experiment [1]; 29.8 µM in experiment [2]; 7 µM in [3]; 14.5 µM in [4]; 13.2 µM in [5]; 14.4 µM in experiment [6]. In addition, the GI50 in experiment [7] was 12.2 µM; in experiment [8], 16.1 µM; in [10], 9.94 µM. Also, the TGI was 30.9 µM in [1]; more than 100 µM in experiment [2]; 20.4 µM in experiment [3]; 33.5 µM in experiment [4]; 41.8 µM in [5]; 38.6 µM in experiment [6]. Further, the TGI was determined as 25.1 µM in experiment [7], 30.3 µM in [8] and 21.5 µM in experiment [10].

Regarding `Nc1nc(-c2cccc([N+](=O)[O-])c2)cc(-c2cc(-c3cccc([N+](=O)[O-])c3)nc(N)n2)n1`, the TGI in experiment [1], in experiment [2], in experiment [3], in [4], in experiment [5] and in experiment [6] was more than 100 µM each time. The TGI in experiment [7], in experiment [8] and in [10] was more than 100 µM in each case.

Consider `N#Cc1c(N)nc(N2CCOCC2)c(C#N)c1-c1ccccc1Cl`, for which the GI50 in [1] is more than 100 µM; in experiment [2] it was 57 µM; in experiment [3] it was 32.4 µM; in experiment [4], 35.8 µM; in [5], 16.9 µM; in experiment [6], 31.2 µM. Moreover, the GI50 in [8] is 43.5 µM; in experiment [9] it was 0.414 µM; in experiment [10] it was 74.7 µM. Also, the TGI is more than 100 µM in experiment [1]; more than 100 µM in [2]; more than 100 µM in experiment [3]; more than 100 µM in experiment [4]; 72.4 µM in experiment [5]; more than 100 µM in experiment [6]. Further, the TGI is more than 100 µM in experiment [8], 32.6 µM in experiment [9] and more than 100 µM in [10].

As to `CC(=O)OC1Oc2ccccc2-c2oc(=O)c(-c3cc4ccccc4oc3=O)cc21` (centres undefined), the GI50 was 18.6 µM in experiment [1]; 33 µM in experiment [2]; 24.8 µM in experiment [3]; 21.5 µM in [4]; 19.3 µM in experiment [5]; 17.4 µM in experiment [6]. Further, the values for the GI50 in experiment [7], in experiment [8] and in [9] were 14.1 µM, 19.8 µM and 17.3 µM, respectively. Further, the TGI in [1] is 34.4 µM; in [2], more than 100 µM; in experiment [3], 57.8 µM; in experiment [4], 53.8 µM; in experiment [5], 45.6 µM; in experiment [6], 35 µM. Further, the results for the total growth inhibition concentration (TGI) in experiment [7], in [8] and in experiment [9] were 29.6 µM, 39.2 µM and 34.5 µM, respectively.

Take `CC(C)c1ccc(NC(=S)NC(=O)c2ccccc2)cc1`: the TGI in experiment [1] is more than 100 µM; in experiment [2], 32.4 µM; in [3] it was 27 µM; in [4] it was more than 100 µM; in experiment [5] it was more than 100 µM; in [6], 57 µM. The TGI in experiment [7] was 55.9 µM; in experiment [8], more than 100 µM; in experiment [10], 39.3 µM.

For the molecule `N#C/C(=C\c1ccc(Br)cc1)n1nnc2ccccc21`, the GI50 in [1] was 1.92 µM; in [2], 0.411 µM; in experiment [3], 0.999 µM; in experiment [4] it was 0.525 µM; in experiment [5], 0.23 µM; in experiment [6], 1.33 µM. In addition, the GI50 was 0.521 µM in [7], 0.513 µM in experiment [8] and 0.518 µM in experiment [10]. The TGI in experiment [1] was determined as 10.5 µM; in [2], 2.25 µM; in [3], 2.32 µM; in experiment [4], 3.48 µM; in [5], 1.58 µM; in experiment [6], 6.17 µM. Further, the TGI in [7] was 2.01 µM; in [8], 1.86 µM; in experiment [10] it was 1.93 µM.

Regarding `O=C1CS/C(=N\S(=O)(=O)c2ccc(N3N=C4c5ccccc5CC4C3c3ccc(Cl)cc3)cc2)N1c1ccccc1` (centres undefined), the GI50 in [1] is 56.8 µM; in experiment [3] it was 32.2 µM; in experiment [4] it was 37.3 µM; in [5], 27 µM; in experiment [6], 86 µM; in [7] it was 27.7 µM. Besides, the GI50 is 60.2 µM in [8] and 38.7 µM in [10]. The TGI is more than 100 µM in [1]; more than 100 µM in [3]; more than 100 µM in [4]; more than 100 µM in [5]; more than 100 µM in experiment [6]; 66.5 µM in experiment [7]. Also, the TGI in experiment [8] and in experiment [10] was more than 100 µM each time.
